Ki data for 48 molecules are collected here from patent publication US8338597B2, “Pyridones useful as inhibitors of kinases” (Vertex Pharmaceuticals Incorporated, priority 2004, dated 2012).

SMILES strings stand for the structures.

The first assay concerns the target T1, Rlk (Homo sapiens, UniProt P42681).
T1 sequence (P42681 1-527): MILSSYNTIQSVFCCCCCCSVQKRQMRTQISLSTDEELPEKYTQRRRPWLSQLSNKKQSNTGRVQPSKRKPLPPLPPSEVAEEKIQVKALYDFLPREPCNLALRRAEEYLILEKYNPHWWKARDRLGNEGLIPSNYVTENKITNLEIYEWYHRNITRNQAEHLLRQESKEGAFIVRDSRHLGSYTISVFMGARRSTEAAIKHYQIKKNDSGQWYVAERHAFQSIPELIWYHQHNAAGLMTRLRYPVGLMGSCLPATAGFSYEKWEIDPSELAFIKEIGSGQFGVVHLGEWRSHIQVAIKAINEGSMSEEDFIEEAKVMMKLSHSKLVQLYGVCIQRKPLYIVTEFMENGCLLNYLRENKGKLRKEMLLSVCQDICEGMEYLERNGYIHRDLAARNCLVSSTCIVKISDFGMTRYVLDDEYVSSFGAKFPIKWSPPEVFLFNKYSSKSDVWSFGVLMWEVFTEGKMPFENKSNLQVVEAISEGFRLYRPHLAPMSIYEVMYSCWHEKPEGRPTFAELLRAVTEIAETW
Briefly: RLK inhibition assay, standard coupled enzyme assay. The format is biochemical. Conditions: 100 μM ATP, 40 nM Rlk, 30° C. The procedure: Compounds were screened for their ability to inhibit Rlk using a standard coupled enzyme assay (Fox et al., Protein Sci., (1998) 7, 2249). Assays were carried out in a mixture of 20 mM MOPS (pH 7.0), 10 mM MgCl2, 0.1% BSA and 1 mM DTT. Final substrate concentrations in the assay were 100 μM ATP (Sigma Chemicals) and 10 μM peptide (Poly Glu:Tyr 4:1). Assays were carried out at 30° C. and in the presence of 40 nM Rlk. Final concentrations of the components of the coupled enzyme system were 2.5 mM phosphoenolpyruvate, 300 μM NADH, 30 μg/ml pyruvate kinase and 10 μg/ml lactate dehydrogenase.
An assay stock buffer solution was prepared containing all of the reagents listed above, with the exception of ATP and the test compound of interest. 60 μl of the stock solution was placed in a 96 well plate followed by addition of […] of DMSO stock containing serial dilutions of the test compound (typically starting from a final concentration of 7.5 μM). The plate was preincubated for 10 minutes at 30° C. and the reaction initiated by addition of 5 μl of ATP. Initial reaction rates were determined with a Molecular Devices SpectraMax Plus plate reader over a 10 minute time course. IC50 and Ki data were calculated from non-linear regression analysis using the Prism software package (GraphPad Prism version 3.0cx for Macintosh, GraphPad Software, San Diego Calif., USA).
Regarding `O=C(Nc1cc(-c2ccncc2)c[nH]c1=O)c1ccc(N2CCNCC2)cc1` [Compound I-71], the Ki is over 1000 nM.
Same read-out and setting: to `CCN(CC)CCN1CCN(c2ccc(C(=O)Nc3cc(-c4ccncc4)c[nH]c3=O)cc2)CC1` [Compound I-74] belongs over 1000 nM.
The molecule `CNc1nccc(-c2c[nH]c(=O)c(NC(=O)c3ccc(C(C)(C)C)cc3)c2)n1` [II-14] showed a Ki of under 1000 nM.
In turn, `Cn1cc(-c2c[nH]c(=O)c(NC(=O)c3ccc(C(C)(C)C)cc3)c2)cn1` [II-15] registered an inhibitory constant (Ki) of over 1000 nM.
The molecule `CNc1cc(-c2c[nH]c(=O)c(NC(=O)c3ccc(C(C)(C)C)cc3)c2)ncn1` [II-17] returned a Ki of over 1000 nM.
The molecule `CC(C)(C)c1ccc(C(=O)Nc2cc(-c3ccnc(NC4CCNCC4)n3)c[nH]c2=O)cc1` [II-28] returned a Ki of under 1000 nM.
For the molecule `CC(C)(C)c1ccc(C(=O)Nc2cc(-c3ccnc(NC4CCCNC4)n3)c[nH]c2=O)cc1` (centres unmarked) [II-29], the Ki is under 1000 nM.
The same measure, in the same setting: to `CC(C)(C)c1ccc(C(=O)Nc2cc(-c3ccnc(NC4CCNC4)n3)c[nH]c2=O)cc1` (centres unmarked) [II-30] belongs under 1000 nM; to `CNc1cc(-c2c[nH]c(=O)c(NC(=O)c3ccc(N4CCCCC4)cc3)c2)ncn1` [II-46], over 1000 nM.
`CNc1cccc(-c2c[nH]c(=O)c(NC(=O)c3ccc(N4CCCCC4)cc3)c2)n1` [II-47] displayed an inhibition constant (Ki) of over 1000 nM.
As for `CNc1cc(-c2c[nH]c(=O)c(NC(=O)c3ccc(N4CCCCC4)cc3)c2)ccn1` [II-115], the inhibition constant Ki is over 1000 nM.
Molecule `CNc1cncc(-c2c[nH]c(=O)c(NC(=O)c3ccc(N4CCCCC4)cc3)c2)c1` [II-159] displayed a Ki of over 1000 nM.

The target of the next assay is T2, Itk (Homo sapiens, UniProt Q08881).
T2 sequence (Q08881 1-620): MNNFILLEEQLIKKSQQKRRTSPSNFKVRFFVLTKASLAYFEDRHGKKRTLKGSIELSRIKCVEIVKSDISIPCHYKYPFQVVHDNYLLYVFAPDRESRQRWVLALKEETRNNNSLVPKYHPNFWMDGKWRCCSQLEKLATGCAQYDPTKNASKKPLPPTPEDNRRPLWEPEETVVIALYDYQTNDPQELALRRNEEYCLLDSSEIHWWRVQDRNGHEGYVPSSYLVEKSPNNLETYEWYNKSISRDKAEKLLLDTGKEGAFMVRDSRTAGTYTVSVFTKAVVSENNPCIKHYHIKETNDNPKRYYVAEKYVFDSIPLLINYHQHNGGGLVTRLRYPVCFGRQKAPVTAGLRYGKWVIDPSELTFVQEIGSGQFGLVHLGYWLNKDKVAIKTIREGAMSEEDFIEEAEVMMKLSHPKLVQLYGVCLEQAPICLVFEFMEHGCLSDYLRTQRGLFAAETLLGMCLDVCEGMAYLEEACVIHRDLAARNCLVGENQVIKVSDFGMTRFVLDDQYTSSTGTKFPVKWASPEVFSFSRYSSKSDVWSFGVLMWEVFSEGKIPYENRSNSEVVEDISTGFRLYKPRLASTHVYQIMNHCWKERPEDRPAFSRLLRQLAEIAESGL
Briefly: ITK inhibition assay, radioactive-phosphate incorporation. The format is biochemical. The note with it: [γ-33P]ATP, SAM68 peptide, 25° C. The procedure:
Assays were carried out in a mixture of 20 mM MOPS (pH 7.0), 10 mM MgCl2, 0.1% BSA and 1 mM DTT. […] Assays were carried out at 25° C. in the presence of 50 nM Itk. An assay stock buffer solution was prepared containing all of the reagents listed above, with the exception of ATP and the test compound of interest.
The reaction was stopped after 10 minutes by the addition of […] 0.2M phosphoric acid+0.01% TWEEN 20. A multiscreen phosphocellulose filter 96-well plate (Millipore, Cat no. MAPHN0B50) was pretreated with 100 μL 0.2M phosphoric acid+0.01% TWEEN 20 prior to the addition of […] of the stopped assay mixture. The plate was washed with 4×200 μL 0.2M phosphoric acid+0.01% TWEEN 20.
Ki(app) data were calculated from non-linear regression analysis of the initial rate data using the Prism software package (GraphPad Prism version 3.0cx for Macintosh, GraphPad Software, San Diego Calif., USA).
As to `O=C(Nc1cc(-c2ccncc2)c[nH]c1=O)c1ccc(N2CCNCC2)cc1` [Compound I-71], the Ki was under 100 nM.
`CCN(CC)CCN1CCN(c2ccc(C(=O)Nc3cc(-c4ccncc4)c[nH]c3=O)cc2)CC1` [Compound I-74]: the Ki was under 100 nM.
Consider `CNc1nccc(-c2c[nH]c(=O)c(NC(=O)c3ccc(C(C)(C)C)cc3)c2)n1` [II-14], for which the inhibition constant (Ki) is under 100 nM.
As for `Cn1cc(-c2c[nH]c(=O)c(NC(=O)c3ccc(C(C)(C)C)cc3)c2)cn1` [II-15], the Ki lay within 100 to 1000 nM.
As for `CNc1cc(-c2c[nH]c(=O)c(NC(=O)c3ccc(C(C)(C)C)cc3)c2)ncn1` [II-17], the inhibitory constant (Ki) is under 100 nM.
Turning to `CC(C)(C)c1ccc(C(=O)Nc2cc(-c3ccnc(NC4CCNCC4)n3)c[nH]c2=O)cc1` [II-28], the Ki is under 100 nM.
Consider `CC(C)(C)c1ccc(C(=O)Nc2cc(-c3ccnc(NC4CCCNC4)n3)c[nH]c2=O)cc1` (centres unmarked) [II-29], for which the Ki was under 100 nM.
For `CC(C)(C)c1ccc(C(=O)Nc2cc(-c3ccnc(NC4CCNC4)n3)c[nH]c2=O)cc1` (centres unmarked) [II-30], the Ki is under 100 nM.
Regarding `CNc1cncc(-c2c[nH]c(=O)c(NC(=O)c3ccc(N4CCCNCC4)cc3)c2)n1` [II-146], the inhibitory constant (Ki) is under 100 nM.
For `CNc1cncc(-c2c[nH]c(=O)c(NC(=O)c3ccc(N4CCC[C@H]4CO)cc3)c2)n1` [II-147], the Ki is under 100 nM.
Take `O=C(Nc1cc(-c2cccc(NC3(CO)CCCC3)n2)c[nH]c1=O)c1ccc(N2CCCCC2)cc1` [II-150]: the Ki lay within 100 to 1000 nM.
In the case of `CC[C@@H](CO)Nc1cccc(-c2c[nH]c(=O)c(NC(=O)c3ccc(N4CCCCC4)cc3)c2)n1` [II-151], the inhibition constant (Ki) was 100 to 1000 nM.
For `CCC(C)[C@@H](CO)Nc1cccc(-c2c[nH]c(=O)c(NC(=O)c3ccc(N4CCCCC4)cc3)c2)n1` (some centres unmarked) [II-152], the Ki is 100 to 1000 nM.
On to `CNc1cncc(-c2c[nH]c(=O)c(NC(=O)c3ccc(OCC4CCNCC4)cc3)c2)n1` [II-153], for which the Ki was under 100 nM.
As for `N#Cc1cncc(-c2c[nH]c(=O)c(NC(=O)c3ccc(N4CCC[C@H]4CN4CCCC4)cc3)c2)c1` [II-154], the Ki lay in the range of 100 to 1000 nM.
Consider `CNc1cncc(-c2c[nH]c(=O)c(NC(=O)c3ccc(N4CCN(C)CC4)cc3)c2)n1` [II-155], for which the Ki is under 100 nM.
For `CNc1cncc(-c2c[nH]c(=O)c(NC(=O)c3ccc(N4CCC(CCO)CC4)cc3)c2)n1` [II-156], the Ki is under 100 nM.
Regarding `CNc1cccc(-c2c[nH]c(=O)c(NC(=O)c3ccc(OCC4CCNCC4)cc3)c2)n1` [II-157], the Ki was under 100 nM.
On to `CNc1cncc(-c2c[nH]c(=O)c(NC(=O)c3ccc(OCCN4CCNCC4)cc3)c2)n1` [II-158], for which the Ki was under 100 nM.
On to `N#Cc1ccnc(-c2c[nH]c(=O)c(NC(=O)c3ccc(N4CCNCC4)cc3)c2)c1` [II-161], for which the Ki fell in the range of 100 to 1000 nM.
Still for that read-out and setting: to `CNc1cncc(-c2c[nH]c(=O)c(NC(=O)c3ccc(NCCN4CCCC4)cc3)c2)n1` [II-162] belongs under 100 nM; to `CNc1cncc(-c2c[nH]c(=O)c(NC(=O)c3ccc(N(C)CCc4cnc[nH]4)cc3)c2)n1` [II-165], under 100 nM.
As for `CNc1cncc(-c2c[nH]c(=O)c(NC(=O)c3ccc(N(C)CCCN(C)C)cc3)c2)n1` [II-167], the inhibition constant Ki is under 100 nM.
Same read-out and setting: to `CNc1cc(-c2c[nH]c(=O)c(NC(=O)c3ccc(N4CCNCC4)cc3)c2)ccn1` [II-169] belongs under 100 nM.
The same measure, in the same setting: to `CNc1cc(-c2c[nH]c(=O)c(NC(=O)c3ccc(OCC4CCNCC4)cc3)c2)ncn1` [II-170] belongs under 100 nM; to `CNc1cc(-c2c[nH]c(=O)c(NC(=O)c3ccc(N4CCC[C@H]4CN4CCCC4)cc3)c2)ccn1` [II-172], under 100 nM; to `O=C(Nc1cc(-c2cccc(NC(CO)CO)n2)c[nH]c1=O)c1ccc(N2CCCCC2)cc1` [II-174], 100 to 1000 nM.
As for `CCNc1cncc(-c2c[nH]c(=O)c(NC(=O)c3ccc(N4CCC[C@H]4CN4CCCC4)cc3)c2)n1` [II-175], the inhibitory constant (Ki) lay within 100 to 1000 nM.
For the molecule `O=C(Nc1cc(-c2cncc(NC3CC3)n2)c[nH]c1=O)c1ccc(N2CCC[C@H]2CN2CCCC2)cc1` [II-176], the inhibitory constant (Ki) lay in the range of 100 to 1000 nM.
Same read-out and setting: to `CNc1cncc(-c2c[nH]c(=O)c(NC(=O)c3ccc(OCCCN4CCCCC4)cc3)c2)n1` [II-177] belongs under 100 nM.
Still for that read-out and setting: to `CNc1cncc(-c2c[nH]c(=O)c(NC(=O)c3ccc(OC4CCNCC4)cc3)c2)n1` [II-181] belongs under 100 nM; to `CNc1cncc(-c2c[nH]c(=O)c(NC(=O)c3ccc(OCCCN4CCOCC4)cc3)c2)n1` [II-182], under 100 nM; to `CCc1ccc(NC(=O)c2cc(-c3ccncc3)c[nH]c2=O)cc1` [III-7], 100 to 1000 nM.
Turning to `O=C(Nc1ccc(Br)cc1)c1cc(-c2ccncc2)c[nH]c1=O` [III-8], the inhibition constant (Ki) is 100 to 1000 nM.
For the molecule `COc1ccc(NC(=O)c2cc(-c3ccncc3)c[nH]c2=O)cc1` [III-11], the inhibition constant (Ki) was 100 to 1000 nM.
With `COc1ccc(NC(=O)c2cc(-c3ccncc3)c[nH]c2=O)cc1OC` [III-16], the inhibition constant Ki lay in the range of 100 to 1000 nM.
Take `O=C(Nc1ccc(N2CCOCC2)cc1)c1cc(-c2ccncc2)c[nH]c1=O` [III-42]: the Ki was under 100 nM.
The same measure, in the same setting: to `O=C(Nc1ccc(C2CCCCC2)cc1)c1cc(-c2ccncc2)c[nH]c1=O` [III-43] belongs 100 to 1000 nM.
For the molecule `O=C(Nc1ccc(N2CCCCC2)cc1)c1cc(-c2ccncc2)c[nH]c1=O` [III-44], the Ki was under 100 nM.
On the same count and under the same terms, to `CCOc1ccc(NC(=O)c2cc(-c3ccncc3)c[nH]c2=O)cc1` [III-45] belongs 100 to 1000 nM; to `CN1CCN(c2ccc(NC(=O)c3cc(-c4ccncc4)c[nH]c3=O)cc2)CC1` [III-46], under 100 nM; to `CCN1CCN(c2ccc(NC(=O)c3cc(-c4ccncc4)c[nH]c3=O)cc2)CC1` [III-47], under 100 nM.
Consider `O=C(Nc1ccc(N2CCC(O)CC2)cc1)c1cc(-c2ccncc2)c[nH]c1=O` [III-52], for which the Ki is under 100 nM.
`O=C(Nc1ccc(N2CCNCC2)cc1)c1cc(-c2ccncc2)c[nH]c1=O` [III-54]: the Ki is under 100 nM.
